This is an account of results in patent US11617729B2 (priority 2019, dated 2023).

Assay [1] has as its system liver cancer cells Huh7. As to the kind of experiment: Inhibition of liver cancer cell proliferation (CellTiter 96 AQueous One Solution). The class given is cell-based. Particulars: 72 hours, 490 nm absorbance. As for the experimental part:
(§1) Liver cells LO2 and liver cancer cells Huh7 are inoculated into a 1640 medium containing 10% FBS (fetal bovine serum) respectively, and cultured at 37° C. for 12 hours in an incubator containing 5% CO2. […] The CellTiter 96® AQueous One Solution kit is used to determine the cells. 20 μL of analytical reagents are added and readings are taken at 490 nm absorbance.

In assay [2] the test system is H22 mouse liver cancer cells. As to the kind of experiment: Inhibition of the growth of mouse liver cancer tumors. The class given is in vivo, Kunming mice. Conditions: for Inhibition rate (ninth day): vs normal saline group, hydrochloride; for tumor volume, Ninth day / tumor volume, Sixth day / tumor volume, Third day: H22 tumors in Kunming mice. The method, then:
Preparation of tumor cell suspension: H22 mouse liver cancer cells are inoculated into a 1640 medium containing 10% FBS (fetal bovine serum), and cultured at 37° C. for 12 h in an incubator containing 5% CO2. When the cells grow to the logarithmic phase, the above medium is prepared into a cell suspension, and the concentration of H22 mouse liver cancer cells is controlled to 1×10^6 cells/mL to obtain the tumor cell suspension for later use.
Building of animal tumor model: 30 SPF grade Kunming mice, male and (20±2) g, are taken. […] The right armpit skin of mice in each group is disinfected with alcohol, and 0.2 mL of the above tumor cell suspension is drawn with a 1 mL syringe, and inoculated into the disinfected part of the mice by slow hypodermic injection. All mice are given sufficient water and feed, the litter is kept dry and the tumor growth of the mice is observed. Generally, 7 days after modeling, obvious tumor nodules can be felt under the armpits of the mice, which means that the modeling was successful.

Assay [3] relates to liver cancer cells Huh7. As to the kind of experiment: Inhibition of fluorescently labeled DNA uptake by liver cancer cells. Particulars: then labeled DNA for 8 hours. The class given is cell-based. As for the experimental part:
1.8 KB of AFP (alpha feto protein) DNA is obtained through PCR (polymerase chain reaction), extracted with phenol-chloroform and adjusted to a concentration of 1 μg/mL. 5 μg of DNA is taken, and Rhodamine (fluorescent marker) is added. The mixture is allowed to stand at 37° C. for 1 hour, and purified in a G-50 Sephadex (purification column).
1640 medium is taken, and FBS (fetal bovine serum) is added, wherein the mass of FBS (fetal bovine serum) is 10% of that of 1640 medium. Put the mixture aside.
Eight groups of liver cancer cells Huh7 are inoculated into a 1640 medium respectively containing 10% FBS (fetal bovine serum) and cultured at 37° C. for 12 hours in an incubator containing 5% CO2.
Cells obtained through culture are rinsed 3 times with PBS and fixed with 4% formalin. The cells fixed as described above are photographed with a fluorescence microscope. […] The concentration of T3 is: 0 ng/mL, 1 ng/mL, 50 ng/mL and 100 ng/mL respectively.

Assay [4] concerns liver cells LO2. The assay can be described thus: Proliferation of liver cells (CellTiter 96 AQueous One Solution). The class given is cell-based. Particulars: 72 hours, 490 nm absorbance. The method, then: as §1
Assay [5] deals with LLC lung cancer cell strains. The assay can be described thus: Inhibition of the growth of mouse lung cancer tumors. The class given is in vivo, CK57BL mice. Conditions: for Inhibition rate on the seventh day: 480 mg/kg intraperitoneally once a day for 7 days, vs normal saline group, hydrochloride. The method, then:
Preparation of tumor cell suspension: LLC lung cancer cell strains are inoculated into a DMEM medium containing 10% FBS (fetal bovine serum), and cultured at 37° C. for 12 h in an incubator containing 5% CO2. When the cells grow to the logarithmic phase, the above medium is prepared into a cell suspension, and the concentration is 1×10^6 cells/mL to obtain the lung cancer cell suspension for later use.
Building of animal tumor model: 20 SPF grade CK57BL mice, male and (20±2) g, are taken. The above mice are kept in a laboratory without particular pathogens. The right armpit skin of the mice is disinfected with alcohol, and 0.2 mL of the above tumor cell suspension is drawn with a 1 mL syringe, and inoculated into the disinfected part of the mice by slow hypodermic injection. All mice are given sufficient water and feed, the litter is kept dry and the tumor growth of the mice is observed. Generally, about 10 days after modeling, obvious tumor nodules can be felt under the armpits of the mice, which means that the modeling was successful.

Where [6] appears, read: high-dose, 480 mg/kg intraperitoneally twice a day.
Where [7] appears, read: low-dose, 240 mg/kg intraperitoneally twice a day.
The mark [8] stands for this setting: 480 mg/kg intraperitoneally once a day, LLC tumors in CK57BL mice.

With guanidine hydrochloride, the “growth of cancer cells Huh7” value in assay [1] (6 mmol/L) was “begins to significantly inhibit”; in assay [1] (20 mmol/L) it was “significantly inhibited”. In addition, the “Inhibition rate (ninth day)” value in assay [2] (high-dose, 480 mg/kg intraperitoneally twice a day for 9 days, 480 mg/kg) is on record as 42%; in assay [2] (low-dose, 240 mg/kg intraperitoneally twice a day for 9 days, 240 mg/kg) it was 24%. The entries for the “tumor volume, Ninth day” value in assay [2] (setting [6]) and in assay [2] (setting [7]) were 2.37 cm^3 and 3.11 cm^3, respectively. Further, the figures for the “tumor volume, Sixth day” value in assay [2] (setting [6]) and in assay [2] (setting [7]) were 1.47 cm^3 and 2.16 cm^3, respectively. Further, the “tumor volume, Third day” value in assay [2] (setting [6]) amounted to 0.54 cm^3; in assay [2] (setting [7]) it was 0.55 cm^3; in assay [5] (setting [8]), 0.92 cm^3. Moreover, the “uptake of fluorescently labeled DNA by liver cancer cells” value in assay [3] (0, 1, 25, 50 mmol/L guanidine hydrochloride for 24 hours, fluorescence microscope) is given as “significantly inhibit the uptake of DNA”. For the same compound, the “growth of liver cells LO2” value in assay [4] (6 mmol/L) is reported as “does not affect the growth”; in assay [4] (20 mmol/L), “significantly inhibited”. Moreover, the “Inhibition rate on the seventh day” value in assay [5] and in assay [5] (listed as Guanidine hydrochloride) was 56.8% each time. Further, the “tumor volume, First day” value in assay [5] (setting [8]) turned out to be 0.43 cm^3. Also, the “tumor volume, Seventh day” value in assay [5] (setting [8]) amounted to 1.8 cm^3.
For `N[C@@H](Cc1cc(I)c(Oc2ccc(O)c(I)c2)c(I)c1)C(=O)O` [triiodothyronine], the “uptake of fluorescently labeled DNA by liver cancer cells” value in assay [3] (control groups with 0, 1, 50, 100 ng/mL T3 for 24 hours) is “do not affect the uptake”.
